Patent US11413278B2, “Compounds and methods for promoting stress resistance” (priority 2015, dated 2022)
Read-outs that look alike come from different tables or passages of the source.

Key:
WI-38 cells [1] = conditions: read-out: Est. ED50; dose response 0.6-20 μM; H2O2-resistance
[2] = tested on: phosphorylated γH2A.X and TP53BP1; assay: DNA damage marker analysis (immuno-staining)
Procedure: WI-38 cells were seeded on 96-well plates and cultured for 24 hrs and then incubated with small molecules for another 24 hrs. As the positive control to damage DNA, H2O2 was supplemented at 700 μM final concentration for the last 3 hrs. Cells were washed with phosphate-buffered saline (PBS), fixed with 4% paraformaldehyde and then blocked with 5% normal goat serum (Cell Signaling), plus 0.3% Triton X-100, for 1 hr. Primary antibody cocktail (rabbit anti-phospho-histone γH2A.X (Ser-139), 1:100; anti-phospho-TP53BP1 (Ser-1778), 1:100), prepared in 1% BSA and 0.3% Triton X-100/PBS, was then introduced and incubated overnight at 4 C. Next day, samples were washed with PBS and further incubated with fluorophore-conjugated secondary antibody (1:1,000) for 1 hr in the dark. Samples were then washed and incubated with DAPI dye (Life Technologies) (4 μg/ml final concentration) for the last 10 minutes. Images were collected on an INCell Analyzer 2000 (GE) and analyzed with the Developer software.
WI-38 cells were seeded (˜8,000 cells per well) on 96-well plates and cultured for 24 hrs and then incubated with small molecules for another 24 hrs. Doxorubicin (300 nM, 24 hrs) and H2O2 (700 μM, 3 hrs) were also introduced as the positive controls to damage DNA. Cells were washed with phosphate-buffered saline (PBS), fixed with 4% paraformaldehyde for 30 min and then blocked with 5% normal goat serum (Cell Signaling) and 0.3% Triton X-100 for 1 hr. Primary antibody cocktail (Cell Signaling, rabbit anti-phospho-histone γH2A.X (Ser-139), 1:100; anti-phospho-TP53BP1 (Ser-1778), 1:100) was prepared in PBS with 1% BSA and 0.3% Triton X-100 and incubated overnight at 4° C. Next day, samples were washed with PBS and further incubated with fluorophore-conjugated secondary antibody (1:1,000) for 1 hr in dark. Samples were then washed and incubated with DAPI dye (Life Technologies) (4 μg/ml final concentration) for 30 minutes. Images were collected on the INCell Analyzer 2000 (10× objective) and analyzed with the Developer Toolbox.

[3] = tested on: human dermal fibroblast (HDF) primary cells; assay: H2O2-resistance in primary human dermal fibroblasts; format: cell-based; conditions: YES/NO
NRF2 [4] = assay: qPCR analysis of NRF2-regulated genes; format: cell-based, human; conditions: Homo sapiens, 24 h, Assay 12(o), at 10 uM, qPCR
Procedure: (§1) For qPCR analysis, WI-38 cells were treated with small molecules (at 10 μM) (biological quadruplicates) for 24 hrs and processed for RNA isolation and reverse transcription (RT) with the Cells-to-Ct Kit (Life Technologies), following manufacturer's instructions. RT products were diluted with H2O and used for qPCR analysis on an ABI 7300 system (Life Technologies) (technical triplicates). Relative expression levels of target genes were normalized to the genes B2M, PPIA and GAPDH. To knock down the expression of FOXO3 or NRF2, WI-38 cells were transfected, using the RNAiMAX reagents (Life Technologies), with siRNA oligos (at 10 nM final concentration, 10 ml culture medium) for FOXO3 (Life Technologies) or NRF2 (Integrated DNA Technologies) on 10-cm petri dishes for 36 hrs, and then detached and aliquoted onto 96-well (for qPCR analysis) or 384-well plates (for H2O2-stress treatment). ˜24 hrs later, small molecules were introduced and incubated with cells for 24 hrs. Cells were then either processed with the Cells-to-Ct Kit to prepare RT products for qPCR analysis or subjected to H2O2 (700 μM) for 3 hrs and assayed for viability. The knockdown efficiency of FOXO3 or NRF2 was checked at 36 hrs post-transfection and at the end as well.
(§2) For qPCR analysis, WI-38 cells were treated with small molecules (at 10 μM) (biological quadruplicate) for 24 hrs and processed for RNA isolation and reverse transcription (RT) with the Cells-to-Ct Kit (Life Technologies), following manufacturer's instructions. RT products were diluted with H2O and used for qPCR analysis on a LightCycler 480 system (Roche) (technical triplicates). Relative expression levels of target genes were normalized to the genes B2M, PPIA and GAPDH. To knock down the expression of FOXO3 or NRF2, WI-38 cells were transfected with siRNA oligos (at 10 nM final concentration) for FOXO3 (Life Technologies) or NRF2 on 10-cm petri dish for 36 hrs, and then detached and aliquoted onto 96-well plates. ˜24 hrs later, small molecules were introduced and incubated with cells for 24 hrs. Cells were then processed with the Cells-to-Ct Kit to prepare RT products for qPCR analysis. The knockdown efficiency of FOXO3 or NRF2 was checked at 36 hrs post-transfection and at the end as well.
NRF2/SKN-1, the oxidative stress and xenobiotic phase 2 detoxification protein, can extend animal lifespan (Sykiotis and Bohmann, 2008; Tullet et al., 2008). Applicants analyzed these small molecules for their ability to increase the expression of NRF2-regulated genes, including HMOX1 (heme oxygenase (decycling) 1; anti-oxidant), NQO1 (NAD(P)H dehydrogenase, quinone 1; phase 2 detoxification enzyme), GCLC (glutamate-cysteine ligase, catalytic) and GSTM1 (glutathionine S transferase) (Hur and Gray, 2011; Suzuki et al., 2013).

FOXO3 = assay: qPCR analysis of FOXO3-regulated genes; format: cell-based, human; conditions: Homo sapiens, 24 h, Assay 10(m), at 10 uM, qPCR
Procedure: as §1, §2
Many perturbations that increase lifespan and stress resistance in animals do so in a FOXO-dependent fashion (Kenyon, 2010c). Humans have several FOXO genes, but FOXO3, which promotes stress resistance in mammalian cell culture (Kops et al., 2002; Nemoto and Finkel, 2002; Tran et al., 2003), is the one that has been linked to exceptional longevity in humans (Anselmi et al., 2009; Flachsbart et al., 2009; Li et al., 2009; Pawlikowska et al., 2009; Soerensen et al., 2010; Willcox et al., 2008). FOXO1, in contrast, appears to be responsible for some symptoms of diabetes in mouse models (Cheng and White, 2011). For this reason, applicants have focused on analyzing potential ability of our small molecules to activate FOXO3. […] Another 4 molecules (Gr-7A, Gr-7C, O12 and O23) could induce robust expression (greater than 1.5-fold) of at least 2 FOXO3 target genes.

NRF2 [5] = assay: in vitro; format: cell-based, human; conditions: 10 uM; YES/NO
Procedure: as §1, §2
Of these, O15 and O20 consistently (in 3 of 3 experiments) required NRF2 to promote H2O2-resistance, and their resistance capacities were reduced by ˜90% on average upon NRF2 knockdown under conditions tested.

C. elegans = C. elegans lifespan assays (liquid and plate); format: in vivo, Caenorhabditis elegans; conditions: Caenorhabditis elegans, at 66 uM
WI-38 cells [6] = assay: Long-term effects on cell viability (5 days, ATP; morphology, PI imaging); format: cell-based; conditions: 10 μM; for Luminescence signal for ATP measurement, day-1 Average / Luminescence signal for ATP measurement, day-2 Average / Luminescence signal for ATP measurement, day-3 Average / Luminescence signal for ATP measurement, day-4 Average / Luminescence signal for ATP measurement, day-5 Average: n = 6; for ATP luminescence by day-5 normalized: DMSO ctrl = 100.0%;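 as to Luminescence signal for ATP measurement, day-2 Average: compounds at 10 µM with ATP read daily over 5 days of treatment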;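 as to Luminescence signal for ATP measurement, day-3 Average: compounds at 10 µM with ATP read daily over 5 days of treatment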;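 as to Luminescence signal for ATP measurement, day-4 Average: compounds at 10 µM with ATP read daily over 5 days of treatment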;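 as to Luminescence signal for ATP measurement, day-5 Average: compounds at 10 µM with ATP read daily over 5 days of treatment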
Procedure: In addition, cell death was scored by PI-imaging on day 2 and day 5 of treatment.
Applicants introduced molecules (at 10 uM final concentration) to WI-38 fibroblasts and then assayed cell viability (through ATP measurement) everyday, during a course of 5 days of continuous treatment. […] Applicants also examined the morphology and scored cell death (propidium iodide staining) for cells treated with the above molecules. Of these 14 molecules, some appeared to cause cell toxicity. […] Despite the observed long-term toxicity, these molecules are still interesting as they may act as anti-tumor agents in vivo, should they have more pronounced cytotoxicity on highly proliferative tumor cells. When cells were incubated with these molecules for ˜24 hrs and then subject to hydrogen peroxide for 3 hrs, these molecules are all protective. […] Some of these small molecules may be toxic by themselves under certain conditions, but by inducing protective mechanisms, they may trigger “hormesis” and therefore protect cells from oxidative stress.

[7] = read-out: Induction of NRF2-regulated genes: NQO1 normalized fold-change
[8] = read-out: Induction of FOXO3-regulated genes: GADD45A normalized fold-change
[9] = Batch 1, day-0 luminescence = 320956 ± 24708
[10] = Batch 2, day-0 luminescence = 229312 ± 17487

## Cc1ccc(C(=O)Nc2ccc3ccc4cccnc4c3n2)cc1 [Gr-3D]
WI-38 cells [1]
  EC50: 4.96 µM

## OO [H2O2, hydrogen peroxide, reference compound]
[2]
  TP53BP1-positive cells: ~45.8±5.1%
  γH2A.X-positive cells: ~50.9±4.2%

## COCCCN1Cc2cccc(C(N)=O)c2C1=O [O2]
WI-38 cells [1]
  EC50: 20 µM

## O=C(CC1(O)C(=O)Nc2ccc(Br)cc21)c1ccc(Cl)cc1 (stereo not shown) [O19]
WI-38 cells [1]
  EC50: 20 µM
[3]
  Assay 6: H2O2-resistant, at 10 uM, human dermal fibroblast (HDF) primary cells: YES
NRF2 [4]; [7]
  fold induction at 10 µM: 1.91
FOXO3; [8]
  fold induction at 10 µM: 0.84

## O=C(O)c1cc(Cl)c(Cl)cc1C(=O)Nc1ccccc1 [O25]
WI-38 cells [1]
  EC50: 8.5 µM
[3]
  Assay 6: H2O2-resistant, at 10 uM, human dermal fibroblast (HDF) primary cells: YES

## Oc1cc(-c2ccccc2)nc2c(-c3ccc(Cl)cc3)c(Cc3ccccc3)nn12 [O26]
WI-38 cells [1]
  EC50: 20 µM
NRF2 [5]
  Assay 17: NRF2-dependency for H2O2-resistance: YES
NRF2 [4]; read-out: Induction of NRF2-regulated genes: GSTM1 normalized fold-change
  fold induction at 10 µM: 0.85
NRF2 [4]; [7]
  fold induction at 10 µM: 0.44
FOXO3; [8]
  fold induction at 10 µM: 3.36
FOXO3; read-out: Induction of FOXO3-regulated genes: SESN1 normalized fold-change
  fold induction at 10 µM: 2.21
FOXO3; read-out: Induction of FOXO3-regulated genes: TXNIP normalized fold-change
  fold induction at 10 µM: 1.16
C. elegans; Assay 2(z), 1.0 × 10^9 bacteria/ml, wild type + FuDR (2012 July), read-out: Lifespan assay in liquid
  ILS at 66 µM: 23.9%
C. elegans; Assay 3(aa), 2.5 × 10^9 bacteria/ml, wild type + FuDR, read-out: Lifespan assay in liquid
  ILS at 66 µM: 4.6%
C. elegans; Assay 4(ab), 2.0 × 10^10 bacteria/ml, CF512 worms, no FuDR, read-out: Lifespan assay on plates
  ILS at 66 µM: 27.1%
C. elegans; Assay 5(ac), 1.0 × 10^11 bacteria/ml, CF512 worms, no FuDR, read-out: Lifespan assay on plates
  ILS at 66 µM: 8.3%

## Cc1cc(C)n(-c2nc(O)cc(-c3ccccc3)n2)n1 [O28]
WI-38 cells [1]
  EC50: 5.4 µM

## CCCCCCc1cc(C=O)c(O)cc1O [O29]
WI-38 cells [1]
  EC50: 15.3 µM

## CC(C)CCOc1ccc(C(=O)C(CN2CCOCC2)c2ccccc2)cc1 (stereo not shown) [O30]
WI-38 cells [1]
  EC50: 4.2 µM

## Nc1c(Cl)ncnc1NCCCn1ccnc1 [O31]
WI-38 cells [1]
  EC50: 10.6 µM

## CO[C@H]1C[C@@H]2CC[C@@H](C)[C@@](O)(O2)C(=O)C(=O)N2CCCC[C@H]2C(=O)O[C@H]([C@H](C)C[C@@H]2CC[C@@H](O)[C@H](OC)C2)CC(=O)[C@H](C)/C=C(\C)[C@@H](O)[C@@H](OC)C(=O)[C@H](C)C[C@H](C)/C=C/C=C/C=C/1C [Rapa]
WI-38 cells [6]; [9]
  Luminescence signal for ATP measurement, day-1 Average: 454546
  Luminescence signal for ATP measurement, day-2 Average: 519403
  Luminescence signal for ATP measurement, day-3 Average: 545026
  Luminescence signal for ATP measurement, day-4 Average: 552160
  Luminescence signal for ATP measurement, day-5 Average: 547771
WI-38 cells [6]; Batch 1
  ATP luminescence by day-5 normalized: 53.3%
WI-38 cells [6]; [10]
  Luminescence signal for ATP measurement, day-1 Average: 239521
  Luminescence signal for ATP measurement, day-2 Average: 221640
  Luminescence signal for ATP measurement, day-3 Average: 244073
  Luminescence signal for ATP measurement, day-4 Average: 276911
  Luminescence signal for ATP measurement, day-5 Average: 262898
WI-38 cells [6]; Batch 2
  ATP luminescence by day-5 normalized: 47.3%
